Calls of active or inactive are those of the source. The rule behind the calls is not given here.

The subject of data set [1] is Eca-109/VCR. As to the kind of experiment: Induction of apoptosis in human Eca-109/VCR cells assessed as viable cells at 5 uM incubated for 60 hrs in presence of vincristine by Annexin V-FITC/PI staining based flow cytometric analysis (reference value: 97.3%). In kind it is functional. Conditions: read-out: Activity. For orientation: Flow cytometry measures light scatter and fluorescence of single cells or particles in a stream.

The test system of data set [2] is Eca-109/VCR. Kind of data set: Induction of apoptosis in human Eca-109/VCR cells assessed as viable cells at 2.5 uM incubated for 60 hrs by Annexin V-FITC/PI staining based flow cytometric analysis (reference value: 97.4%). It counts as functional. Conditions: read-out: Activity.
In data set [3] the test system is Eca-109/VCR. As to the kind of experiment: Induction of apoptosis in human Eca-109/VCR cells assessed as early apoptotic cells at 2.5 uM incubated for 60 hrs by Annexin V-FITC/PI staining based flow cytometric analysis (reference value: 1.66%). It counts as functional.
The subject of data set [4] is Eca-109/VCR. As to the kind of experiment: Induction of apoptosis in human Eca-109/VCR cells assessed as late apoptotic cells at 5 uM incubated for 60 hrs in presence of vincristine by Annexin V-FITC/PI staining based flow cytometric analysis (reference value: 0.56%). It counts as functional.
For data set [5], the system named is Eca-109/VCR. Kind of data set: Induction of apoptosis in human Eca-109/VCR cells assessed as necrotic cells at 2.5 uM incubated for 60 hrs in presence of vincristine by Annexin V-FITC/PI staining based flow cytometric analysis (reference value: 0.10%). It counts as functional.
Data set [6] has as its system Eca-109/VCR. Kind of data set: Induction of apoptosis in human Eca-109/VCR cells assessed as late apoptotic cells at 2.5 uM incubated for 60 hrs in presence of vincristine by Annexin V-FITC/PI staining based flow cytometric analysis (reference value: 0.56%). In kind it is functional.
Data set [7] deals with Eca-109/VCR. As to the kind of experiment: Induction of apoptosis in human Eca-109/VCR cells assessed as necrotic cells at 5 uM incubated for 60 hrs in presence of vincristine by Annexin V-FITC/PI staining based flow cytometric analysis (reference value: 0.10%). In kind it is functional.
Data set [8] has as its system Eca-109/VCR. Kind of data set: Induction of apoptosis in human Eca-109/VCR cells assessed as viable cells at 5 uM incubated for 60 hrs by Annexin V-FITC/PI staining based flow cytometric analysis (reference value: 97.4%). It counts as functional. Conditions: read-out: Activity.
Data set [9] has as its system Eca-109/VCR. As to the kind of experiment: Cytotoxicity against human Eca-109/VCR cells assessed as reduction in cell viability at 5.0 uM incubated for 48 hrs by CCK-8 assay relative to control. In kind it is functional.
Data set [10] deals with Eca-109/VCR. As to the kind of experiment: Induction of apoptosis in human Eca-109/VCR cells assessed as viable cells at 2.5 uM incubated for 60 hrs in presence of vincristine by Annexin V-FITC/PI staining based flow cytometric analysis (reference value: 97.3%). It counts as functional. Conditions: read-out: Activity.
The test system of data set [11] is Eca-109/VCR. As to the kind of experiment: Induction of apoptosis in human Eca-109/VCR cells assessed as necrotic cells at 2.5 uM incubated for 60 hrs by Annexin V-FITC/PI staining based flow cytometric analysis (reference value: 0.22%). In kind it is functional.
Data set [12] concerns Eca-109/VCR. As to the kind of experiment: Induction of apoptosis in human Eca-109/VCR cells assessed as late apoptotic cells at 2.5 uM incubated for 60 hrs by Annexin V-FITC/PI staining based flow cytometric analysis (reference value: 0.70%). In kind it is functional.
Data set [13] deals with Eca-109/VCR. Kind of data set: Induction of apoptosis in human Eca-109/VCR cells assessed as necrotic cells at 5 uM incubated for 60 hrs by Annexin V-FITC/PI staining based flow cytometric analysis (reference value: 0.22%). It counts as functional.
For data set [14], the system named is Eca-109/VCR. Kind of data set: Induction of apoptosis in human Eca-109/VCR cells assessed as early apoptotic cells at 5 uM incubated for 60 hrs by Annexin V-FITC/PI staining based flow cytometric analysis (reference value: 1.66%). It counts as functional.
Data set [15] concerns Eca-109/VCR. Kind of data set: Induction of apoptosis in human Eca-109/VCR cells assessed as late apoptotic cells at 5 uM incubated for 60 hrs by Annexin V-FITC/PI staining based flow cytometric analysis (reference value: 0.70%). It counts as functional.
For a further data set, the system named is ECa-109 cell line. As to the kind of experiment: Cytotoxicity against human Eca-109 cells incubated for 48 hrs by CCK-8 assay. In kind it is functional, cell-based. Conditions: ECa-109, 48 h. Background: Tetrazolium assays rely on reduction of a dye to a coloured formazan, in cell work by metabolically active cells.
Data set [16] has as its system Eca-109/VCR. As to the kind of experiment: Cytotoxicity against human Eca-109/VCR cells assessed as reduction in cell viability incubated for 48 hrs by CCK-8 assay. In kind it is functional, cell-based.
For data set [17], the system named is Eca-109/VCR. Kind of data set: Reversal of multi-drug resistance in human Eca-109/VCR cells assessed as decrease in cloning formation at 0.5 to 2 uM incubated for 8 days by crystal violet staining based analysis. In kind it is functional, cell-based. Conditions: dose 0.5-2 µM, time 8.0 day.
Data set [18] concerns Eca-109/VCR. Kind of data set: Reversal of multi-drug resistance in human Eca-109/VCR cells assessed as decrease in cloning formation at 0.5 to 2 uM incubated for 8 days in presence of vincristine by crystal violet staining based analysis. It counts as functional, cell-based. Conditions: dose 0.5-2 µM, time 8.0 day.
Data set [19] is described as follows: Apparent clearance in male Sprague-Dawley rat at 10 mg/kg, po measured after 24 hrs by UPLC-MS/MS analysis. It counts as ADME, organism-based. Conditions: in vivo, read-out: CL(app) (converted).
A short description of data set [20]: Reversal fold, ratio of colchicine IC50 to colchicine IC50 in presence of test compound for reversal of drug resistance in human Eca-109/VCR cells at 5 uM incubated for 48 hrs by CCK-8 assay. In kind it is functional.
A short description of data set [21]: Reversal fold, ratio of docetaxel IC50 to docetaxel IC50 in presence of test compound for reversal of drug resistance in human Eca-109/VCR cells at 5 uM incubated for 48 hrs by CCK-8 assay. In kind it is functional.
Data set [22] is described as follows: Reversal fold, ratio of lapatinib IC50 to lapatinib IC50 in presence of test compound for reversal of drug resistance in human Eca-109/VCR cells at 5 uM incubated for 48 hrs by CCK-8 assay. In kind it is functional.
Data set [23] deals with Eca-109/VCR. Kind of data set: Effect on p-gp expression in human Eca-109/VCR cells at 5 to 10 uM incubated for 24 hrs by Western blotting analysis. In kind it is functional, cell-based. Conditions: dose 5-10 µM. Background: In western blotting, separated proteins are transferred to a membrane and probed.
Data set [24] concerns Eca-109/VCR. As to the kind of experiment: Reversal of multi-drug resistance in human Eca-109/VCR cells assessed as decrease in cloning formation incubated for 8 days in presence of vincristine by crystal violet staining based analysis. It counts as functional, cell-based. Conditions: dose 0.5-2 µM, time 8.0 day.
Data set [25] can be described thus: Reversal fold, ratio of mitoxantrone IC50 to mitoxantrone IC50 in presence of test compound for reversal of drug resistance in human Eca-109/VCR cells at 5 uM incubated for 48 hrs by CCK-8 assay. It counts as functional.
Data set [26] can be described thus: Reversal fold, ratio of doxorubicin IC50 to doxorubicin IC50 in presence of test compound for reversal of drug resistance in human Eca-109/VCR cells at 5 uM incubated for 48 hrs by CCK-8 assay. In kind it is functional.
Data set [27] can be described thus: Reversal fold, ratio of vincristine IC50 to vincristine IC50 in presence of test compound for reversal of drug resistance in human Eca-109/VCR cells at 5 uM incubated for 48 hrs by CCK-8 assay. In kind it is functional.

With `COc1cc2c(cc1OC)CN(CCc1ccc(NC(=O)c3cc(OC)c(OC)cc3NC(=O)c3cnc4ccccc4c3)cc1)CC2` [TARIQUIDAR], the viability at 5 µM with Eca-109/VCR [1] amounted to 63.4%; in the data set with Eca-109/VCR [8], 95.6%. The values for the viability at 2.5 µM in the data set on Eca-109/VCR [2] and in the data set with Eca-109/VCR [10] were 96.1% and 63.2%, respectively. For the same molecule, the Activity with Eca-109/VCR [3] is reported as 1%; in the data set with Eca-109/VCR [4] it was 7%; in the data set with Eca-109/VCR [5], 0.47%; with Eca-109/VCR [6], 7.6%; in the data set with Eca-109/VCR [7], 0.57%; in the data set on Eca-109/VCR [11], 0.22%. Also, the Activity in the data set on Eca-109/VCR [12] was 0.64%; in the data set on Eca-109/VCR [13], 0.21%; in the data set on Eca-109/VCR [14], 3.18%. Also, the “Cell viability (% of control)” value in the data set on Eca-109/VCR [9] amounted to 84.8%.
For `COc1ccc(CCN(C)CCCC(C#N)(c2ccc(OC)c(OC)c2)C(C)C)cc1OC` (stereo unspecified) [VERAPAMIL], the viability at 5 µM with Eca-109/VCR [1] came to 75.4%; with Eca-109/VCR [8], 96.2%. The Activity with Eca-109/VCR [3] was found to be 1.19%; in the data set with Eca-109/VCR [15], 0.72%; with Eca-109/VCR [4], 5.95%; in the data set with Eca-109/VCR [5] it was 0.17%; with Eca-109/VCR [6], 0.85%; in the data set on Eca-109/VCR [7], 0.34%. For the same molecule, the Activity with Eca-109/VCR [11] is 0.2%; with Eca-109/VCR [12], 0.55%; in the data set with Eca-109/VCR [13] it was 0.13%; in the data set with Eca-109/VCR [14], 1.12%. Also, the “Cell viability (% of control)” value with Eca-109/VCR [9] came to 98.9%. Moreover, in the data set on Eca-109/VCR [10], the viability at 2.5 µM is 96%.
Usually IC50 stands for the midpoint of a concentration-inhibition curve. Molecule `COc1cccc2c1C(=O)c1c(O)c3c(c(O)c1C2=O)C[C@@](O)(C(=O)CO)C[C@@H]3O[C@H]1C[C@H](N)[C@H](O)[C@H](C)O1` [DOXORUBICIN] gave an IC50 in the data set with ECa-109 cell line of 2.07 µM.
In the case of `CC[C@]1(O)C[C@H]2CN(CCc3c([nH]c4ccccc34)[C@@](C(=O)OC)(c3cc4c(cc3OC)N(C=O)[C@H]3[C@@](O)(C(=O)OC)[C@H](OC(C)=O)[C@]5(CC)C=CCN6CC[C@]43[C@@H]65)C2)C1` [VINCRISTINE], the half-inhibitory concentration (IC50) with Eca-109/VCR [16] stood at 4.15 µM. Moreover, in the data set with Eca-109/VCR [17], the outcome was inactive.
As for `COc1cc2c(cc1OC)C(Cc1ccc(OS(=O)(=O)c3ccccc3[N+](=O)[O-])c(OC)c1)N(C)CC2` (stereo unspecified), the viability at 5 µM with Eca-109/VCR [1] was 94.5%; in the data set on Eca-109/VCR [8] it was 97.1%. The viability at 2.5 µM with Eca-109/VCR [2] was determined as 96.9%; in the data set on Eca-109/VCR [10], 75.4%. For the same molecule, the Activity result with Eca-109/VCR [18] was “Active; Compound Showed Superior Reversal Activity Compared To Oy-101”; in the data set with Eca-109/VCR [3], 2.19%; in the data set on Eca-109/VCR [15], 1%; in the data set on Eca-109/VCR [4], 9.21%; with Eca-109/VCR [5] it was 0.63%; with Eca-109/VCR [6], 5.47%. In addition, the Activity in the data set with Eca-109/VCR [7] is 0.7%; in the data set on Eca-109/VCR [24], “Dose-dependent-effect”; with Eca-109/VCR [11], 0.29%; with Eca-109/VCR [12], 0.53%; in the data set with Eca-109/VCR [14], 1.61%. Further, the CL/F in [19] is 393 L/h/kg. Also, the result with Eca-109/VCR [17] was inactive. Moreover, the “Ratio IC50” value in [20] was 98.2; in data set [21], 149.7; in data set [22], 1; in data set [25] it was 10; in [26], 29.4; in data set [27] it was 467.7. Also, in the data set on Eca-109/VCR [23], the result was Active. For the same molecule, the “Cell viability (% of control)” value in the data set with Eca-109/VCR [9] is recorded as 99.1%.

Source of the values: ChEMBL document CHEMBL6182888, “Design, synthesis, and biological activity study of 6,7-dimethoxy-1,2,3,4-tetrahydroisoquinoline derivatives against multidrug resistance in Eca109/VCR cells” (Eur J Med Chem, 2025).
